Test results as given in ChEMBL document CHEMBL4680246, “Design, synthesis and biological evaluation of novel O-carbamoyl ferulamide derivatives as multi-target-directed ligands for the treatment of Alzheimer's disease” (Eur J Med Chem, 2020).

What was measured:
[1] = Acute toxicity in Kunming mouse assessed as damage in lung at 50 to 1000 mg/kg measured after 7 days; assay type: organism-based; details: in vivo, 168 h, dose 50-1000 mg/kg, time 7 day
[2] = Toxicity in Zebrafish assessed as induction of kidney edema at 6.25 ug/ml relative to control; parameters: species or system Danio rerio; details: in vivo, at 6.25 µg/mL
Mus musculus [3] = assay: Improvement in cognitive impairment in scopolamine-induced mouse model of amnesia assessed as change in spontaneous alteration at 20 mg/kg by Y-maze test (reference value: 40.8%); assay type: functional
Danio rerio [4] = organism: Danio rerio; assay: Antialzheimer activity in AlCl3-induced Zebrafish model of Alzheimer's disease assessed as increase in motility speed at 1 ug/ml relative to control; assay type: functional; details: dose 1 µg/ml
SH-SY5Y = assay: Cytotoxicity against human SH-SY5Y cells up to 50 uM by MTT assay; assay type: cell-based
[5] = Effect on APP protein level in mouse HT22 cells transfected with pEGFP-N1-APP plasmid assessed as fluorescence intensity at 20 uM by fluorescence microscopy (reference value: 33.2); assay type: functional, HT-22
Danio rerio [6] = organism: Danio rerio; assay: Protection against amyloid beta (1 to 42)-induced zebrafish model of vascular injury assessed as reduction in vascular injury at 1 ug/ml relative to control; assay type: functional; details: dose 1 µg/ml
[7] = Toxicity in Zebrafish assessed as slow blood flow at 6.25 ug/ml relative to control; assay type: tissue-based, Danio rerio; details: at 6.25 µg/mL
Danio rerio [8] = organism: Danio rerio; assay: Antialzheimer activity in AlCl3-induced Zebrafish model of Alzheimer's disease assessed as increase in motility speed at 0.33 ug/ml relative to control; assay type: functional; details: dose 0.33 µg/ml
Danio rerio [9] = organism: Danio rerio; assay: Protection against amyloid beta (1 to 42)-induced zebrafish model of vascular injury assessed as vascular injury rate at 0.33 ug/ml (reference value: 73.3%); assay type: functional; details: dose 0.33 µg/ml
Danio rerio [10] = organism: Danio rerio; assay: Protection against amyloid beta (1 to 42)-induced zebrafish model of vascular injury assessed as reduction in injury rate; assay type: functional, organism-based
[11] = Effect on APP protein level in mouse HT22 cells transfected with pEGFP-N1-APP plasmid assessed as fluorescence intensity at 5 uM by fluorescence microscopy (reference value: 33.2); assay type: functional, HT-22
[12] = Effect on tau protein level in mouse HT22 cells transfected with pRK5-GFP-Tau plasmid assessed as fluorescence intensity at 10 uM by fluorescence microscopy (Rvb <= 40.9); assay type: functional, HT-22
HT-22 = assay: Effect on tau protein level in mouse HT22 cells transfected with pRK5-GFP-Tau P301L plasmid assessed as reduction in fluorescence intensity by fluorescence microscopy; assay type: functional, cell-based
[13] = Toxicity in Zebrafish assessed as pericardial edema at 6.25 ug/ml relative to control; parameters: species or system Danio rerio; details: in vivo, at 6.25 µg/mL
[14] = Toxicity in AlCl3-induced Zebrafish model of Alzheimer's disease assessed as mortality at 100 ug/ml relative to control; parameters: species or system Danio rerio; details: in vivo, at 100 µg/mL
[15] = Acute toxicity in Kunming mouse assessed as damage in liver at 50 to 1000 mg/kg measured after 7 days; assay type: organism-based; details: in vivo, 168 h, dose 50-1000 mg/kg, time 7 day
[16] = Acute toxicity in Kunming mouse assessed as damage in heart at 50 to 1000 mg/kg measured after 7 days; assay type: organism-based; details: in vivo, 168 h, dose 50-1000 mg/kg, time 7 day
[17] = Toxicity in Zebrafish assessed as mortality at 3.125 ug/ml relative to control; parameters: species or system Danio rerio; details: in vivo, at 3.125 µg/mL
Mus musculus [18] = assay: Improvement in brain cholinergic activity in scopolamine-induced mouse model of amnesia assessed as change in AChE vitality at 6 mg/kg (reference value: 0.105 U/mg); assay type: functional
Cholinesterase [19] = molecular target: T1, Cholinesterase (Homo sapiens, UniProt P06276); assay: Inhibition of human serum BuChE assessed as residual activity at 0.1 times IC50 using acetylcholine iodide as substrate measured after dilution by Ellman's method relative to control
[20] = Toxicity in Zebrafish assessed as change in body shape at 6.25 ug/ml relative to control; parameters: species or system Danio rerio; details: in vivo, at 6.25 µg/mL
[21] = Drug metabolism in rat liver microsomes by HPLC analysis; assay type: ADME, Microsome
[22] = molecular target: Amyloid-beta precursor protein (Homo sapiens) (UniProt P05067); assay: Inhibition of self-induced Amyloid beta (1 to 42 residues) (unknown origin) aggregation at 25 uM measured after 24 hrs by thioflavin T-based fluorimetric assay relative to control
[23] = Effect on spontaneous alteration behavior in mouse assessed as change in total arm entry at 5 to 20 mg/kg by Y-maze test; assay type: ADME, organism-based; details: in vivo, dose 5-20 mg/kg
[24] = Toxicity in Zebrafish assessed as mortality at 6.25 ug/ml relative to control; parameters: species or system Danio rerio; details: in vivo, at 6.25 µg/mL
Danio rerio [25] = organism: Danio rerio; assay: Protection against amyloid beta (1 to 42)-induced zebrafish model of vascular injury assessed as vascular injury rate at 1 ug/ml (reference value: 73.3%); assay type: functional; details: dose 1 µg/ml
Cholinesterase [26] = molecular target: T1, Cholinesterase; assay: Inhibition of human serum BuChE assessed as residual activity at IC50 using acetylcholine iodide as substrate measured after dilution by Ellman's method relative to control
Homo sapiens = organism: Homo sapiens; assay: Selectivity index, ratio of IC50 for human erythrocytes Ache to IC50 for human serum BuChe
[27] = Toxicity in AlCl3-induced Zebrafish model of Alzheimer's disease assessed as mortality at 50 ug/ml relative to control; parameters: species or system Danio rerio; details: in vivo, at 50 µg/mL
[28] = Cytotoxicity against human LO2 cells assessed as cell viability at 50 uM by MTT assay relative to control; assay type: cell-based, L02; details: read-out: Activity
[29] = molecular target: Amyloid-beta precursor protein (Homo sapiens) (UniProt P05067); assay: Disaggregation of self-induced amyloid beta (1 to 42) (unknown origin) preformed fibrils at 25 uM measured after 24 hrs by thioflavin-T fluorescence assay relative to control
Mus musculus [30] = assay: Improvement in brain cholinergic activity in scopolamine-induced mouse model of amnesia assessed as change in AChE vitality at 20 mg/kg (reference value: 0.105 U/mg); assay type: functional
Danio rerio [31] = organism: Danio rerio; assay: Protection against amyloid beta (1 to 42)-induced zebrafish model of vascular injury assessed as reduction in vascular injury at 0.33 ug/ml relative to control; assay type: functional; details: dose 0.33 µg/ml
[32] = Toxicity in Zebrafish assessed as effect on kidney at 6.25 ug/ml relative to control; parameters: species or system Danio rerio; details: in vivo, at 6.25 µg/mL
[33] = Toxicity in AlCl3-induced Zebrafish model of Alzheimer's disease assessed as mortality at 2.5 ug/ml relative to control; parameters: species or system Danio rerio; details: in vivo, at 2.5 µg/mL
[34] = Toxicity in Zebrafish assessed as absence of blood flow at 6.25 ug/ml relative to control; parameters: species or system Danio rerio; details: at 6.25 µg/mL
Danio rerio [35] = organism: Danio rerio; assay: Antialzheimer activity in AlCl3-induced Zebrafish model of Alzheimer's disease assessed as change in motility speed at 0.33 ug/ml (reference value: 1.08 mm/s); assay type: functional; details: dose 0.33 µg/ml
Acetylcholinesterase [36] = molecular target: Acetylcholinesterase (Electrophorus electricus, UniProt O42275); assay: Inhibition of Electrophorus electricus AChE using acetylcholine iodide as substrate incubated for 15 mins by Ellman's method
[37] = Toxicity in AlCl3-induced Zebrafish model of Alzheimer's disease; parameters: species or system Danio rerio; details: in vivo
Acetylcholinesterase [38] = molecular target: Acetylcholinesterase (Homo sapiens, UniProt P22303); assay: Inhibition of human erythrocytes AChE using acetylcholine iodide as substrate incubated for 15 mins by Ellman's method
Sequence of Acetylcholinesterase (Homo sapiens, UniProt P22303) (P22303 whole entry): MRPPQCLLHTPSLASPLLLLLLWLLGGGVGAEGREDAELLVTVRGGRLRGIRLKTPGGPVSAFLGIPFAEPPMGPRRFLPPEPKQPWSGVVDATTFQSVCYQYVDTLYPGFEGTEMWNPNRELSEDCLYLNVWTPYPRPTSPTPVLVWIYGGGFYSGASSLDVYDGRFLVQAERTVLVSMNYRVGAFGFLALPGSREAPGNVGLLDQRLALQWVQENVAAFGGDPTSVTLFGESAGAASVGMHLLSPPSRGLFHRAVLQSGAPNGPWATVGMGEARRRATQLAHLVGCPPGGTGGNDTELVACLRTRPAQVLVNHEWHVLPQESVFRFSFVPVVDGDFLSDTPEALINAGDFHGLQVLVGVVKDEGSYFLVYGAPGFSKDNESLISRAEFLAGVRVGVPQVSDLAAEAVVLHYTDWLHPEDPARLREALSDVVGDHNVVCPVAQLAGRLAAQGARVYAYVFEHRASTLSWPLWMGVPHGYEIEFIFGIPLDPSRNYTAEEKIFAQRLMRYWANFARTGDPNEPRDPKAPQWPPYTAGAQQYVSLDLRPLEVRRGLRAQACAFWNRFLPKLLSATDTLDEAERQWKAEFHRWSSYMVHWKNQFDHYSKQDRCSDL

T1 sequence (P06276 whole entry): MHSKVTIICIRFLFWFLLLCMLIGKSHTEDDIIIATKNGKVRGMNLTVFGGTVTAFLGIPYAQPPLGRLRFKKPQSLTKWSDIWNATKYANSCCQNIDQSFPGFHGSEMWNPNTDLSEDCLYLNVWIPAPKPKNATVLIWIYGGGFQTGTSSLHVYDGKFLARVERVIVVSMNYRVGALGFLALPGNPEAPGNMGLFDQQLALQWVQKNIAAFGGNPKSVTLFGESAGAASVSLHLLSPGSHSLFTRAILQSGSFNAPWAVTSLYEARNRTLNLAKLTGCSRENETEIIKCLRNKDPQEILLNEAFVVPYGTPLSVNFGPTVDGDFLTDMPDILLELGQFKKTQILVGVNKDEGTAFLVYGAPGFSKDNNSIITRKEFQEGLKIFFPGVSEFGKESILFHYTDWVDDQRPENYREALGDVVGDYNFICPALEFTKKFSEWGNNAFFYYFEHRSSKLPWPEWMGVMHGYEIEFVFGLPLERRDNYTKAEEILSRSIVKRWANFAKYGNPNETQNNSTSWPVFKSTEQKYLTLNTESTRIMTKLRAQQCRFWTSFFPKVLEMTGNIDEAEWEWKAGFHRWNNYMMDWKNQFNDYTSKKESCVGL
Sequence of Amyloid-beta precursor protein (Homo sapiens) (P05067 whole entry, the tested form may be a part): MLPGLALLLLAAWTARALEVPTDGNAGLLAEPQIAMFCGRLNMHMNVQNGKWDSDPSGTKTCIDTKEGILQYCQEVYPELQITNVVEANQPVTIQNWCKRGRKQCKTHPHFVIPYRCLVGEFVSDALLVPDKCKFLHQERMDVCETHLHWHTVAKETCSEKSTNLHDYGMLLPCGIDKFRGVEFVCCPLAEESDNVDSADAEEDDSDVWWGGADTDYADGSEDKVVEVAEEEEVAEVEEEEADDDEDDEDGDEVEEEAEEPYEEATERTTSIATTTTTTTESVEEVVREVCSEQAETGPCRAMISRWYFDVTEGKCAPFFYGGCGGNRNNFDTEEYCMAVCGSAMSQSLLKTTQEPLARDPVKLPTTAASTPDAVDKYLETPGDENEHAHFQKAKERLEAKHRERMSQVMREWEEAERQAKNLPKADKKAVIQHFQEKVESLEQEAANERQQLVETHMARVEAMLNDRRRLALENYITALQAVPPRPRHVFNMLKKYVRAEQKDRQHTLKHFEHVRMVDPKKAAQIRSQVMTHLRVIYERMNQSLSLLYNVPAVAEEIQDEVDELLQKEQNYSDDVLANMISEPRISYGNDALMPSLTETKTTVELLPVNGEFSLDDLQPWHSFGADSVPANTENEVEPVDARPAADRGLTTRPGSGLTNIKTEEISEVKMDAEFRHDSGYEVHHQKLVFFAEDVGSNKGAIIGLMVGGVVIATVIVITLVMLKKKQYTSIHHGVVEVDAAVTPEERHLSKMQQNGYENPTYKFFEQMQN
Sequence of Acetylcholinesterase (Electrophorus electricus, UniProt O42275) (O42275 whole entry): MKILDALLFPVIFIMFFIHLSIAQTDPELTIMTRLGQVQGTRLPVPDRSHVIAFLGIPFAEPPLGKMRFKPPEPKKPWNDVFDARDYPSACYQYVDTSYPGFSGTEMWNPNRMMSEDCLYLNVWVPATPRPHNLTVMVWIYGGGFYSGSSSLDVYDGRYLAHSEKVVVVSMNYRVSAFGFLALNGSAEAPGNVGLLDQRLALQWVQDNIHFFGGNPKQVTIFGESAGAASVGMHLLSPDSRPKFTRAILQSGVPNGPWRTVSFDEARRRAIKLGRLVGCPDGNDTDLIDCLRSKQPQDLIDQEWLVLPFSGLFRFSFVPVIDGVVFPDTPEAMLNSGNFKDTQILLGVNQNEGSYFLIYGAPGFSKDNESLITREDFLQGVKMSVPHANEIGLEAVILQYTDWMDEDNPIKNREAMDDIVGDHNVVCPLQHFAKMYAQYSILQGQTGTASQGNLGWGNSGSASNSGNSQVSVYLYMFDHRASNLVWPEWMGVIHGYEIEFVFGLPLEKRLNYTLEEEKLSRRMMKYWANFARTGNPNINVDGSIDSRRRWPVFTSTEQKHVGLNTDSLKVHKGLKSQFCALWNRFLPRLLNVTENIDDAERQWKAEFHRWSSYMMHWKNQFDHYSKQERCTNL

## CCN(C)C(=O)Oc1ccc(/C=C/C(=O)N2CCc3ccccc3C2)cc1OC
[1]
  Activity: Non-Toxic
[2]
  Activity: 33.3%
Mus musculus [3]
  Activity: 61.6%
Danio rerio [4]
  Efficacy: 86.3%
SH-SY5Y
  Activity: Non-Toxic
[5]
  Flu intensity: 14.9
Danio rerio [6]
  Efficacy: 27.3%
[7]
  Activity: 16.7%
Danio rerio [8]
  Efficacy: 79%
Danio rerio [9]
  Activity: 66.7%
Danio rerio [10]
  Activity: Dose-dependent effect
[11]
  Flu intensity: 13.6
[12]
  Flu intensity: 33.3
HT-22
  Activity: Dose-dependent effect
[13]
  Activity: 46.7%
[14]
  mortality at 100 ug/ml: 100%
[15]
  Activity: Non-Toxic
[16]
  Activity: Non-Toxic
[17]
  mortality at 3.125 ug/ml: 0%
Mus musculus [18]
  Activity: 0.098 U/mg
Cholinesterase [19]
  Activity: 47.1%
[20]
  Activity: 53.3%
[21]
  Drug metabolism: Metabolite_Detected
[22]
  inhibition: 58.2%
[23]
  Activity: Non-Toxic
[24]
  mortality at 6.25 ug/ml: 6.7%
Danio rerio [25]
  Activity: 53.3%
Cholinesterase [26]
  Activity: 48.2%
Homo sapiens
  Ratio IC50: 10.9
[27]
  mortality at 50 ug/ml: 100%
[28]
  viability at 50 µM: 46.9%
[29]
  Activity: 43.3%
Mus musculus [30]
  Activity: 0.1 U/mg
Danio rerio [31]
  Efficacy: 9%
[32]
  Activity: 23.3%
[33]
  mortality at 2.5 ug/ml: 0%
[34]
  Activity: 16.7%
Danio rerio [35]
  Activity: 2.06 millimeter/sec
Acetylcholinesterase [36]
  IC50: 11.3 µM
[37]
  MTD: 1 µg/mL
Acetylcholinesterase [38]
  IC50: 10.6 µM
